From US20170332691A1, “NUTRITIONAL COMPOSITIONS COMPRISING SN-1 (3) MONOACYLGLYCEROLS FOR USE IN THE TREATMENT OF MALABSORPTION OR MALDIGESTION IN INFANTS OR YOUNG CHILDREN” (NESTEC S.A., priority 2014, published 2017) come the findings set out here.

The structures appear in SMILES notation.

The nature of data set [1]: clinical study: sn-1(3) MAG vs fish oil (TAG) delivering EPA under XENICAL-induced lipid maldigestion. The class given is in vivo, human. How it is done:
This clinical study compared the efficacy of sn-1(3) MAG and fish oil (TAG) in delivering EPA in humans under lipid maldigestion conditions induced by XENICAL® (ORLISTAT). The comparison was tested in volunteers treated with XENICAL® to induce lipid maldigestion or not treated with XENICAL® (ORLISTAT). The primary objective was to assess accretion of EPA in erythrocytes over 21 days when consumed as fish oil (TAG) or sn-1(3) MAG. The secondary objectives were to assess accretion of EPA in plasma over 21 days and also to assess the pharmacokinetics of EPA after an acute dose either in the form of sn-1(3) MAG or TAG (AUC in chylomicrons over 10 hours postprandial). See FIG. 4 that describes the clinical study timeline.

Data set [2] can be described thus: lipid maldigestion or malabsorption rat model (XENICAL/Orlistat), EPA in red blood cells and tissues. The class given is in vivo. The settings on record: for level of EPA incorporated in red blood cells: rats fed with XENICAL, day 7 (FIG. 3). How it is done: The concept was tested in a lipid maldigestion or malabsorption rat model. The maldigestion or malabsorption condition was obtained using XENICAL® (ORLISTAT, tetrahydrolipstatin), a pancreatic and gastric lipases inhibitor. Rats were fed during 21 days with long-chain polyunsaturated fatty acid (LC-PUFA) supplements containing mainly eicosapentaenoic (EPA) acid. Fish oil was used as a source of triacylglycerols, and different EPA glycerides were evaluated: […] XENICAL® (ORLISTAT) was given at a level sufficient to decrease lipid absorption by 40%. A group receiving fish oil without XENICAL® (ORLISTAT) was used as a positive control. At different time intervals (D3, D7, […]), the fatty acid profiles of red blood cells and plasma lipids were determined. At the end of the experiment, the fatty acid profiles of different tissues were determined. The main objective was to follow the level of EPA in red blood cells and plasma lipids. The main comparison evaluated was the difference in EPA level between the group receiving EPA glycerides such as EPA-containing sn-1(3) MAG, in combination with XENICAL® (ORLISTAT) and the positive control group (fish oil+XENICAL® (ORLISTAT)).

For the compound `CC/C=C\C/C=C\C/C=C\C/C=C\C/C=C\CCCC(=O)OCC(O)CO` (stereo not shown) [Sn-1(3)-MAG-EPA, sn-1(3)-monoeicosapentaenoylglycerol], in data set [1] (human subjects treated with XENICAL, vs fish oil (TAG)), the “carrier for EPA (overall conclusion of the clinical trial)” value is recorded as “better carrier for EPA than fish oil (TAG)”. In addition, the “accretion of EPA in erythrocytes after 21 days (chronic effect)” value in data set [1] (humans, with XENICAL, in comparison to fish oil and XENICAL, p=0.0001 (FIG. 6)) is recorded as “statistically significant”. Moreover, the “accretion of EPA in plasma after 21 days (chronic effect)” value in data set [1] (humans, with XENICAL, relative to fish oil and XENICAL, p=0.0003 (FIG. 7)) is “statistically significant”. In addition, the “level of EPA incorporated in red blood cells” value in data set [2] (compared with fish oil + XENICAL, all P values lower than 0.05) was “statistically higher”; in data set [2] (compared with fish oil group without XENICAL), “even higher than the fish oil group”. Further, in data set [2] (rats with XENICAL, comparing groups A, B and C), the “incorporation of LC-PUFAs in tissue” value was “improved”.

On to `CCCCCCCCCCC[C@@H](C[C@@H]1OC(=O)[C@H]1CCCCCC)OC(=O)[C@H](CC(C)C)NC=O` [XENICAL® (ORLISTAT), tetrahydrolipstatin, reference compound], for which, in data set [2] (rats fed fish oil with XENICAL vs fish oil without XENICAL, day 7), the “EPA incorporation in red blood cells” value was “decreases EPA incorporation in red blood cells”.
